Measurements published in ChEMBL document CHEMBL1201862, “PubChem BioAssay data set” (2004).
Calls of active or inactive are those of the source.

Target: T1, Serine/threonine-protein kinase Chk1 (Homo sapiens, UniProt O14757);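 note: measured as one member of a kinome-wide kinase profiling panel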
T1 sequence (O14757 whole entry): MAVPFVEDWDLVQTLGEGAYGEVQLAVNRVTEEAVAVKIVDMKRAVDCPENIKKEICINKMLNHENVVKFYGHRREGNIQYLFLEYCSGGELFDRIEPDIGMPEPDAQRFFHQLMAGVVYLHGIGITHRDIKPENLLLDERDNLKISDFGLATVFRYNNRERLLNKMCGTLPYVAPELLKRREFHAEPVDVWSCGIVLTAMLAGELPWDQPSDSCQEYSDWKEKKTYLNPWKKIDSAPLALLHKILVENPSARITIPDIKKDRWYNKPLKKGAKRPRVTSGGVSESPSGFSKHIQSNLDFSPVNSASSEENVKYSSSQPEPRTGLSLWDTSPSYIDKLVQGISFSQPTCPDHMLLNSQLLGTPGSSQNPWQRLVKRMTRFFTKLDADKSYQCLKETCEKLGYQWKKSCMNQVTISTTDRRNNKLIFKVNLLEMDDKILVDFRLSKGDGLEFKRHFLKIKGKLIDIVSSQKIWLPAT
Format: functional

Row | SMILES | Ki
1 | NC(COc1cncc(-c2ccc3c(c2)C(=Cc2ccc[nH]2)C(=O)N3)c1)Cc1ccccc1 (stereo not given) | 0.251 µM (active)
2 | O=C1Cc2cc(-c3ccccc3)cnc2N1 | 3.98 µM (active)
3 | O=C1Nc2cc(-c3ccc(O)cc3)ccc2C1=Cc1ccc[nH]1 | 0.02 µM (active)

Target: Vascular endothelial growth factor receptor 1 (Homo sapiens, UniProt P17948);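 note: measured within a kinome-wide profiling panel, FLT1 as the panel member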
Format: functional

Sequence of Vascular endothelial growth factor receptor 1 (P17948 whole entry): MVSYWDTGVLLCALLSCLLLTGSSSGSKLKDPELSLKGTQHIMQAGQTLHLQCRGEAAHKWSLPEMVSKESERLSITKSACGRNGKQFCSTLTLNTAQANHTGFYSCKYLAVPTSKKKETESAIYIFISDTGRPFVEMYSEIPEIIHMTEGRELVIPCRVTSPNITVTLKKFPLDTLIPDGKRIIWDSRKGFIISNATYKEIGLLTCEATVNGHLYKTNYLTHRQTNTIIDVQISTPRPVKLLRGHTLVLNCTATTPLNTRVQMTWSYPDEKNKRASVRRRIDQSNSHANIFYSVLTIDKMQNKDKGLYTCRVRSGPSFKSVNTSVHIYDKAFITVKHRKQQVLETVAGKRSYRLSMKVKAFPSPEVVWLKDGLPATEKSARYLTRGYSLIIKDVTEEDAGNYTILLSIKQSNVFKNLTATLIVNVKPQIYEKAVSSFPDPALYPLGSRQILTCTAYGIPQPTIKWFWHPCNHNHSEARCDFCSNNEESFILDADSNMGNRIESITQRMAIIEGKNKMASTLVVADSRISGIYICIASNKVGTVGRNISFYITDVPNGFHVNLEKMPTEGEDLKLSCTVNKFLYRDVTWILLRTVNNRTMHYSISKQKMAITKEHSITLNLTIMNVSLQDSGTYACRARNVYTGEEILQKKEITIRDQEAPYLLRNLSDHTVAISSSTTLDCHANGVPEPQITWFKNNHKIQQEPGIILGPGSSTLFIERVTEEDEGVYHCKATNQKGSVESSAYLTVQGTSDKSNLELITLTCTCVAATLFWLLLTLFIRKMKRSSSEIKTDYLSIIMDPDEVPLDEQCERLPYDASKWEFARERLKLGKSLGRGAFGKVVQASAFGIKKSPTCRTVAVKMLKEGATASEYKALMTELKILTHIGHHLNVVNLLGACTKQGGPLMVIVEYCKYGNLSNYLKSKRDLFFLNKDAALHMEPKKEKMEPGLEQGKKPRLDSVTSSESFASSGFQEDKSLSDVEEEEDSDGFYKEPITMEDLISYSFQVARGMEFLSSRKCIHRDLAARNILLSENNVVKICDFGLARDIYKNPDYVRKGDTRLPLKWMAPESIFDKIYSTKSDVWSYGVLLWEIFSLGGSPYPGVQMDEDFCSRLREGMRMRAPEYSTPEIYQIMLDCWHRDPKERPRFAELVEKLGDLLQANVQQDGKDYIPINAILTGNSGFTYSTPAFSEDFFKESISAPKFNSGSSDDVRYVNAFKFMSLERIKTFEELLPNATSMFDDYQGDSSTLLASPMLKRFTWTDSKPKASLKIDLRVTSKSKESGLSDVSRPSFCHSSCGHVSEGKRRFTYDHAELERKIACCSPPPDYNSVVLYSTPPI

Row | SMILES | Ki
4 | NC(COc1cncc(-c2ccc3c(c2)C(=Cc2ccc[nH]2)C(=O)N3)c1)Cc1ccccc1 (stereo not given) | 0.000631 µM (active)
5 | O=C1Cc2cc(-c3ccccc3)cnc2N1 | 79.4 µM (active)
6 | O=C1Nc2cc(-c3ccc(O)cc3)ccc2C1=Cc1ccc[nH]1 | 0.02 µM (active)

Target: Cyclin-dependent kinase 7 (Homo sapiens, UniProt P50613);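 note: value comes from a kinome-wide kinase profiling panel in which CDK7 is one member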
Format: functional

Row | SMILES | Ki
7 | NC(COc1cncc(-c2ccc3c(c2)C(=Cc2ccc[nH]2)C(=O)N3)c1)Cc1ccccc1 (stereo not given) | 0.01 µM (active)
8 | O=C1Cc2cc(-c3ccccc3)cnc2N1 | 39.8 µM (active)
9 | O=C1Nc2cc(-c3ccc(O)cc3)ccc2C1=Cc1ccc[nH]1 | > 3.98 µM (inactive)

Target: T2, Receptor-type tyrosine-protein kinase FLT3 (Homo sapiens, UniProt P36888);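 note: FLT3 was tested as one member of a kinome-wide kinase panel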
T2 sequence (P36888 whole entry): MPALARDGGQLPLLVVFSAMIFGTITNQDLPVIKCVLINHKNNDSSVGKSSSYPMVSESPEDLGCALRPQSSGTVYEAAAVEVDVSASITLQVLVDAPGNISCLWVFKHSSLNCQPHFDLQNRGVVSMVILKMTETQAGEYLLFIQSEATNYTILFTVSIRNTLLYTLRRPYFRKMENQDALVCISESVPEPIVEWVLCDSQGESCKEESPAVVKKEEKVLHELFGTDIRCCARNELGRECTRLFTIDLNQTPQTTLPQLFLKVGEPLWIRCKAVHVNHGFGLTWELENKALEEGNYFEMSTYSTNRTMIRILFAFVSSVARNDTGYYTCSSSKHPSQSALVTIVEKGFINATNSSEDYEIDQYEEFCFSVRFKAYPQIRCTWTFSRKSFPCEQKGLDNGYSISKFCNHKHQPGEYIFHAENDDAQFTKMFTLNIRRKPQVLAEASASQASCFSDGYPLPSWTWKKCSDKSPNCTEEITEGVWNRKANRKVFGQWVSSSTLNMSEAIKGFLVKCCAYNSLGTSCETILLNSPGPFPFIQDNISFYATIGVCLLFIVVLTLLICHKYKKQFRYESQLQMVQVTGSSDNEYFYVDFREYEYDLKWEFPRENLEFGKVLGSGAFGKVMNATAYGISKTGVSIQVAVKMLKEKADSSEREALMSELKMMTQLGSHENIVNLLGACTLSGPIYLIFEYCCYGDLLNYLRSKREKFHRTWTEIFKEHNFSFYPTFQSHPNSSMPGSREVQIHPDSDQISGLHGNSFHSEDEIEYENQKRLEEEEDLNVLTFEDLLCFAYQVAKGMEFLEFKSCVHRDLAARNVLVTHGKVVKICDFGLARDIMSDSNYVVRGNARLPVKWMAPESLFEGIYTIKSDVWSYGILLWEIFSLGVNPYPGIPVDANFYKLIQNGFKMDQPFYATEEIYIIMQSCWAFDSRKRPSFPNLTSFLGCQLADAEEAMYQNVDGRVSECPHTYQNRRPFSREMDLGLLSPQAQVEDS
Format: functional

Row | SMILES | Ki
10 | NC(COc1cncc(-c2ccc3c(c2)C(=Cc2ccc[nH]2)C(=O)N3)c1)Cc1ccccc1 (stereo not given) | 0.0251 µM (active)
11 | O=C1Cc2cc(-c3ccccc3)cnc2N1 | 79.4 µM (active)
12 | O=C1Nc2cc(-c3ccc(O)cc3)ccc2C1=Cc1ccc[nH]1 | > 3.16 µM (inactive)

Target: Aurora kinase B (Homo sapiens, UniProt Q96GD4)
Format: functional

Sequence of Aurora kinase B (Q96GD4 whole entry): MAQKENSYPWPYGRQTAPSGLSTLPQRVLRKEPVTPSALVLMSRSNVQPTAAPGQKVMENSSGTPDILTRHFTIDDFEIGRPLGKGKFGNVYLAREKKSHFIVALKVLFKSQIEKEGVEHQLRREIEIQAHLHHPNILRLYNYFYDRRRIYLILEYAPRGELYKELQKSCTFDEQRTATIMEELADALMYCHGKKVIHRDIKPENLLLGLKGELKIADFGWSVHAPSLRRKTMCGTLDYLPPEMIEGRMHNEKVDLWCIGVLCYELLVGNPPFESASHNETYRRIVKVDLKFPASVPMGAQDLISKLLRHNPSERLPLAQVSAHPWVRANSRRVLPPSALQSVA

Row | SMILES | Ki
13 | NC(COc1cncc(-c2ccc3c(c2)C(=Cc2ccc[nH]2)C(=O)N3)c1)Cc1ccccc1 (stereo not given) | 0.0398 µM (active)
14 | O=C1Cc2cc(-c3ccccc3)cnc2N1 | 31.6 µM (active)
15 | O=C1Nc2cc(-c3ccc(O)cc3)ccc2C1=Cc1ccc[nH]1 | 0.02 µM (active)

Target: Glycogen synthase kinase-3 beta (Homo sapiens, UniProt P49841);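 note: value comes from a broad kinome profiling panel, with GSK3B as the panel member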
Format: functional

Sequence of Glycogen synthase kinase-3 beta (P49841 whole entry): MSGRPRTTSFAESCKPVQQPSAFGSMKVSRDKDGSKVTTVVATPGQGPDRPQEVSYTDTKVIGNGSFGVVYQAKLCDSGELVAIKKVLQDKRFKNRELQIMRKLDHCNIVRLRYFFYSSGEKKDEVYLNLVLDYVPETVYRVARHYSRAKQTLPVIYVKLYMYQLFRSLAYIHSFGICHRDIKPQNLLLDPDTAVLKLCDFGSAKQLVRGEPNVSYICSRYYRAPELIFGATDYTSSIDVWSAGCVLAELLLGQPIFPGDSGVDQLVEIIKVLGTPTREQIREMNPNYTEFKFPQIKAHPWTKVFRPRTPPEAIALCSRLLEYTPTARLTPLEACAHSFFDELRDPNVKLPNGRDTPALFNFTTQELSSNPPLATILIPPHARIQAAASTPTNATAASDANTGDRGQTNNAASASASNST

Row | SMILES | Ki
16 | NC(COc1cncc(-c2ccc3c(c2)C(=Cc2ccc[nH]2)C(=O)N3)c1)Cc1ccccc1 (stereo not given) | 0.00251 µM (active)
17 | O=C1Cc2cc(-c3ccccc3)cnc2N1 | 15.8 µM (active)
18 | O=C1Nc2cc(-c3ccc(O)cc3)ccc2C1=Cc1ccc[nH]1 | 0.501 µM (active)

Target: BDNF/NT-3 growth factors receptor (Homo sapiens, UniProt Q16620);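 note: NTRK2 measured as one member of a broad kinome-wide kinase profiling panel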
Format: functional

Sequence of BDNF/NT-3 growth factors receptor (Q16620 whole entry): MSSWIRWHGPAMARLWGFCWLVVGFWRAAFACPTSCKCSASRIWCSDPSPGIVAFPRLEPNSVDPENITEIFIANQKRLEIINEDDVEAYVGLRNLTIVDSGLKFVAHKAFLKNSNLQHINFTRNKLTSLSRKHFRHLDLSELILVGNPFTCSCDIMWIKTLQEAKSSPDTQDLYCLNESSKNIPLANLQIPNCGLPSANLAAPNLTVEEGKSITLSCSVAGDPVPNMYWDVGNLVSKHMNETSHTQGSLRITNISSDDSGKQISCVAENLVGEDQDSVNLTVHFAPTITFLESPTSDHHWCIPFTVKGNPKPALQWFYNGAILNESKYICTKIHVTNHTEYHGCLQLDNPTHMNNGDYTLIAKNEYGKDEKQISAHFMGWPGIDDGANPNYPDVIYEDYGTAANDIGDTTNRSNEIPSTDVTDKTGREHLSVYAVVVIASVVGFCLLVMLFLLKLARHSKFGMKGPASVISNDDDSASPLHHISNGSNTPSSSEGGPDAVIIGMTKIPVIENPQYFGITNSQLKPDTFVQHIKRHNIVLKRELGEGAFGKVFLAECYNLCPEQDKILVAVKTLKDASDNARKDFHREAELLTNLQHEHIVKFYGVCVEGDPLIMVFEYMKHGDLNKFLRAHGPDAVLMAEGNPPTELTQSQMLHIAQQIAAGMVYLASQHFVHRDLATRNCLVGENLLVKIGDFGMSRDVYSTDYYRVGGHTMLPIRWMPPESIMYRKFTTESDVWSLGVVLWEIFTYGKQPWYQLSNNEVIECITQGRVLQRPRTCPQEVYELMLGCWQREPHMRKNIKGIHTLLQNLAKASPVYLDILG

Row | SMILES | Ki
19 | NC(COc1cncc(-c2ccc3c(c2)C(=Cc2ccc[nH]2)C(=O)N3)c1)Cc1ccccc1 (stereo not given) | 0.00501 µM (active)
20 | O=C1Cc2cc(-c3ccccc3)cnc2N1 | 100 µM (active)
21 | O=C1Nc2cc(-c3ccc(O)cc3)ccc2C1=Cc1ccc[nH]1 | 0.631 µM (active)

Target: T3, Sentrin-specific protease 6 (Homo sapiens, UniProt Q9GZR1);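 note: Luminescence-based dose-response confirmatory assay of SENP6 inhibition, following up an ultra-high-throughput screen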
T3 sequence (Q9GZR1 whole entry): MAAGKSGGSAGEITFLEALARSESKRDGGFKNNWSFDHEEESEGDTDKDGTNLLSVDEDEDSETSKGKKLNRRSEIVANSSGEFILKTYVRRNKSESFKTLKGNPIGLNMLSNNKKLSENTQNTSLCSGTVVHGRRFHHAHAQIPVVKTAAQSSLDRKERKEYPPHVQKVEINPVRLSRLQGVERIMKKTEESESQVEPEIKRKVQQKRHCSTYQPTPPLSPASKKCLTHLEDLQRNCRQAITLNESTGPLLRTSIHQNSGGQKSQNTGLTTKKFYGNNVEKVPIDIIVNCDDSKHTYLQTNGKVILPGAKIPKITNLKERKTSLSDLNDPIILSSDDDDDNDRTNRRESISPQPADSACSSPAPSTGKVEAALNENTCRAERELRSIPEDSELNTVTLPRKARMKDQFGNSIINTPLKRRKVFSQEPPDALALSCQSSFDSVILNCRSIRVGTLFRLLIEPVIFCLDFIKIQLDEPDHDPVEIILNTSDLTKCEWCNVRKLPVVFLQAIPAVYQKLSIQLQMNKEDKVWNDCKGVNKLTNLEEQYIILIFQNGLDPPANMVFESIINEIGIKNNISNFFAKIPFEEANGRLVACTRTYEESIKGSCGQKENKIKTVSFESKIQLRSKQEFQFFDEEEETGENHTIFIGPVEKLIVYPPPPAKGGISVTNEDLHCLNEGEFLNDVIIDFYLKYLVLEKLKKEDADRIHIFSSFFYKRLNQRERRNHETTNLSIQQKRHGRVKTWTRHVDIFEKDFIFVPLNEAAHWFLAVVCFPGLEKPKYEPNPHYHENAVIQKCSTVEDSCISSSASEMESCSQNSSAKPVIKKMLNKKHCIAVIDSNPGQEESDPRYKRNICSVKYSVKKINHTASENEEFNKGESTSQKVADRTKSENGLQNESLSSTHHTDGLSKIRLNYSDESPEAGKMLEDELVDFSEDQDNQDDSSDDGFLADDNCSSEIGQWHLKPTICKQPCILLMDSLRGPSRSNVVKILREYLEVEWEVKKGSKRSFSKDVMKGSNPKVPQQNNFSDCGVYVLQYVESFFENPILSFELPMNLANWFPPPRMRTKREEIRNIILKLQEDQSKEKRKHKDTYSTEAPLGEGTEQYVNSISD
Format: functional

Row | SMILES | IC50
22 | O=C(NC1=C(Nc2ccc(F)cc2)C(=O)c2ccccc2C1=O)c1ccc(Cl)cc1 | 8.56 µM (active)
23 | CN(C)c1cc(N/N=C\c2ccccc2)nc(N(C)C)n1 | 6 µM (active)
24 | Oc1nc(Nc2ccc(F)cc2)cc2ccccc12 | 2.99 µM (active)

Target: ALK tyrosine kinase receptor (Homo sapiens, UniProt Q9UM73);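 note: ALK tested as one member of a kinase panel screen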
Format: functional

Sequence of ALK tyrosine kinase receptor (Q9UM73 whole entry): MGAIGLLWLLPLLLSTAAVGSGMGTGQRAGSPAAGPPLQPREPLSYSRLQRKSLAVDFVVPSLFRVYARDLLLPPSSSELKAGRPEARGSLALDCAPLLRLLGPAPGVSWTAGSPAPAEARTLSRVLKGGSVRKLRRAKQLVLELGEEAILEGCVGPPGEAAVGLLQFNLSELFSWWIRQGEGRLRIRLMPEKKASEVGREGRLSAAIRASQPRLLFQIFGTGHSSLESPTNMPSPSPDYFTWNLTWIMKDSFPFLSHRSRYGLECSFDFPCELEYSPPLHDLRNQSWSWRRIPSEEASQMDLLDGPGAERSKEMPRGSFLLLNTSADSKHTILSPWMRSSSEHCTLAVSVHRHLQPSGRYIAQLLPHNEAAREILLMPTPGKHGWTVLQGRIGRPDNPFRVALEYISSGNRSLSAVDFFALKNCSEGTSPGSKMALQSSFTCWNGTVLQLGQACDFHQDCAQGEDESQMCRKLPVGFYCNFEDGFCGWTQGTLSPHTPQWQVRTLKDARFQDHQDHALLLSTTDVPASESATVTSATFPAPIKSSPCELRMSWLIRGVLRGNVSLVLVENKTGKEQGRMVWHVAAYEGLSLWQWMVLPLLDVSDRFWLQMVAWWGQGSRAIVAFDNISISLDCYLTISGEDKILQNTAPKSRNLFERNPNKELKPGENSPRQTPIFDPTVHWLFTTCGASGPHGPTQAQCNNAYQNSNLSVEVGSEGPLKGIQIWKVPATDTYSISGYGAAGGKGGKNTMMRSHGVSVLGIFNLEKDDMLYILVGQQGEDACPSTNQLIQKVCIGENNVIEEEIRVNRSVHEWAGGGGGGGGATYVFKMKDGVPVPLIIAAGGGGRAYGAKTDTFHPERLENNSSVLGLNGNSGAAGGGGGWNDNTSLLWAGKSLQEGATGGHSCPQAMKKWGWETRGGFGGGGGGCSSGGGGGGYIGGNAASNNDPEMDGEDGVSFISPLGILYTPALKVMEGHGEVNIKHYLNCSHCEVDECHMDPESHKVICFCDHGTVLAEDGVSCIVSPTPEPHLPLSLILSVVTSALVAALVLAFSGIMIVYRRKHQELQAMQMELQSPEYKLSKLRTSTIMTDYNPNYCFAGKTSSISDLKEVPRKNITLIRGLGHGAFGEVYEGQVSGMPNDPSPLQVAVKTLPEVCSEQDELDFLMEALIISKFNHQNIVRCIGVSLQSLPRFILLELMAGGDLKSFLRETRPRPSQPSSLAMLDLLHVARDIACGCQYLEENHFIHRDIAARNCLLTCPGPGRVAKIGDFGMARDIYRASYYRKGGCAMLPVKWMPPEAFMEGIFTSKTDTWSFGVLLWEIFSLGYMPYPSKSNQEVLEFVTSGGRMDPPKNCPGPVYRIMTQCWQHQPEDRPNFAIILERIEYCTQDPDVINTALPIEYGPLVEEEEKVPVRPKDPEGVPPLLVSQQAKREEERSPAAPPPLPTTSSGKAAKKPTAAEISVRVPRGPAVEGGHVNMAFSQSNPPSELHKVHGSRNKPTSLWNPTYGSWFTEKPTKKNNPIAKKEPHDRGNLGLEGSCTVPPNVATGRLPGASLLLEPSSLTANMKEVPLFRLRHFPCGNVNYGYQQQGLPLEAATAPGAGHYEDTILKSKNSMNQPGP

Row | SMILES | Ki
25 | NC(COc1cncc(-c2ccc3c(c2)C(=Cc2ccc[nH]2)C(=O)N3)c1)Cc1ccccc1 (stereo not given) | 0.2 µM (active)
26 | O=C1Cc2cc(-c3ccccc3)cnc2N1 | 63.1 µM (active)
27 | O=C1Nc2cc(-c3ccc(O)cc3)ccc2C1=Cc1ccc[nH]1 | 0.0126 µM (active)

Target: Cyclin-dependent kinase 8 (Homo sapiens, UniProt P49336)
Test: Navigating the Kinome. Panel member name: CDK8
Format: functional

Sequence of Cyclin-dependent kinase 8 (P49336 whole entry): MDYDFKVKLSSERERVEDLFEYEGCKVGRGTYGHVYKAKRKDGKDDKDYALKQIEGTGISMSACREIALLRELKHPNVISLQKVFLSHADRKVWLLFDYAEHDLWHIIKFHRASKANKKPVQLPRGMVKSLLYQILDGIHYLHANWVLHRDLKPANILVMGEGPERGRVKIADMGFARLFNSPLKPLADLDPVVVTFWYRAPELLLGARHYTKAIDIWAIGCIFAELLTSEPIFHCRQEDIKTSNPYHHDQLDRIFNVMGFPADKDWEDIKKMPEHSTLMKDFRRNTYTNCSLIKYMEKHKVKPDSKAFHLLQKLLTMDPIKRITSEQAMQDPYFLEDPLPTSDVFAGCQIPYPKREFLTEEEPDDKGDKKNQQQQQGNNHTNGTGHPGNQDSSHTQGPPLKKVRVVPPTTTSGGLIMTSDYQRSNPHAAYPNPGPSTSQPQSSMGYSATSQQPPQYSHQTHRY

Row | SMILES | Ki
28 | NC(COc1cncc(-c2ccc3c(c2)C(=Cc2ccc[nH]2)C(=O)N3)c1)Cc1ccccc1 (stereo not given) | 1.58 µM (active)
29 | O=C1Cc2cc(-c3ccccc3)cnc2N1 | 25.1 µM (active)
30 | O=C1Nc2cc(-c3ccc(O)cc3)ccc2C1=Cc1ccc[nH]1 | > 3.98 µM (inactive)
